# Reference: US20070056052A1, “Methods of generating knock-out rodents” (priority 2001, published 2007)
# Entries after “also recorded” stand apart in the source; their conditions may differ.
# Experiments:
# Format in all cases: in vivo, rat
# SD male rats (germ line) = experiment: Visual phenodeviant screen of F1 pups from ENU-treated SD males
# Method: (§1) ENU mutagenesis rat protocol: Pathogen-free inbred Wistar Furth (WF), inbred Fischer-344 (F344) and outbred Sprague Dawley (SD) male and female rats were obtained from Harlan Sprague Dawley, Inc. (Indianapolis, Ind.). All rats were given Teklad Lab Blox chow (Harlan Teklad, Madison, Wis.), acidified water ad libitum, and were housed under a 12-h light/12-h dark cycle. After a one week acclimation period, nine-week-old male rats were administered ENU as a single intraperitoneal injection; for a split dose, rats were injected with ENU once at 9 weeks of age and again at 10 weeks of age. One gram of ENU (Sigma) was dissolved in 10 mls of 95% ethanol and then diluted with 90 mls of phosphate citrate buffer prior to injection. All injections of ENU were given in the morning hours. To characterize the effect of ENU treatment on fertility in the various rat strains, mutagenized males were paired with untreated females of the same strain for consecutive 2-3 week periods, beginning 3-5 weeks after the first ENU treatment and continuing a minimum of 26 weeks post-ENU. We observed female rats for vaginal plugs, gross pregnancy and date of birth/size of litters. For our phenotypic mutant (phenodeviant) rat screening experiments, ENU-treated SD male rats were bred with SD female rats and all F1 pups were visually checked for gross abnormalities in physical development or behavior as compared to littermates at least twice prior to weaning at approximately 21 days of age. A subset of the F1 phenodeviant rats identified was bred to SD rats to determine inheritance of the observed phenotypic mutation. Several of the heritable phenodeviant rat lines are currently being maintained and backcrossed to eliminate residual ENU-induced genetic changes not associated with the phenotypic mutation.
# (§2) Phenodeviant rat production: Multiple ENU dosing protocols in the SD rat strain determine their germline mutagenic potential by breeding ENU-treated SD males to females of the same strain to produce F1 offspring. These pups were examined for readily observable physical or behavioral abnormalities. Phenodeviants were identified at all doses listed in Table 2 with a variety of abnormalities observed. Phenodeviant F1 pups were born at various times between 6-52 weeks post-ENU treatment of male founders. The most frequent abnormalities visually identified were those of the eyes, tail, and growth. […] Selected phenodeviant rat F1 pups were maintained and bred to determine the heritability of the physical abnormalities (Table 3). […] These abnormalities were diverse (Table 4).
# SD rats = experiment: Heritability test of F1 phenodeviant rats bred to SD rats
# Method: as §1, §2
# male rats = experiment: Toxicity and lifespan observation of ENU-treated male rats
# Method: as §1, with “For our phenotypic mutant (phenodeviant) rat screening experiments, ENU-treated SD male rats were bred with SD female rats and all F1 pups were visually checked for gross abnormalities in physical development or behavior as compared to littermates at least twice prior to weaning at approximately 21 days of age. A subset of the F1 phenodeviant rats identified was bred to SD rats to determine inheritance of the observed phenotypic mutation. Several of the heritable phenodeviant rat lines are currently being maintained and backcrossed to eliminate residual ENU-induced genetic changes not associated with the phenotypic mutation.” left out
smiles,measurement,setting,value
"CCN(N=O)C(N)=O [ENU, N-ethyl-N-nitrosourea]","F1 phenodeviant rats, abnormality observed: behavioral",SD male rats (germ line); single dose 100 mg/kg,1
same,"F1 phenodeviant rats, abnormality observed: craniofacial",SD male rats (germ line); single dose 100 mg/kg,0
same,"F1 phenodeviant rats, abnormality observed: ear",SD male rats (germ line); single dose 100 mg/kg,1
same,"F1 phenodeviant rats, abnormality observed: eye",SD male rats (germ line); single dose 100 mg/kg,5
same,"F1 phenodeviant rats, abnormality observed: gonad",SD male rats (germ line); single dose 100 mg/kg,1
same,"F1 phenodeviant rats, abnormality observed: growth (<50% littermates)",SD male rats (germ line); single dose 100 mg/kg,0
same,"F1 phenodeviant rats, abnormality observed: limb/digit",SD male rats (germ line); single dose 100 mg/kg,0
same,"F1 phenodeviant rats, abnormality observed: multiple",SD male rats (germ line); single dose 100 mg/kg,0
same,"F1 phenodeviant rats, abnormality observed: skin/hair",SD male rats (germ line); single dose 100 mg/kg,0
same,"F1 phenodeviant rats, abnormality observed: tail",SD male rats (germ line); single dose 100 mg/kg,0
same,total number of phenodeviants,"SD male rats (germ line); single dose 100 mg/kg, 1251 F1 rats examined",8
same,"F1 phenodeviant rats, abnormality observed: behavioral",SD male rats (germ line); single dose 120 mg/kg,0
same,"F1 phenodeviant rats, abnormality observed: craniofacial",SD male rats (germ line); single dose 120 mg/kg,0
same,"F1 phenodeviant rats, abnormality observed: ear",SD male rats (germ line); single dose 120 mg/kg,1
same,"F1 phenodeviant rats, abnormality observed: eye",SD male rats (germ line); single dose 120 mg/kg,1
same,"F1 phenodeviant rats, abnormality observed: gonad",SD male rats (germ line); single dose 120 mg/kg,0
same,"F1 phenodeviant rats, abnormality observed: growth (<50% littermates)",SD male rats (germ line); single dose 120 mg/kg,0
same,"F1 phenodeviant rats, abnormality observed: limb/digit",SD male rats (germ line); single dose 120 mg/kg,0
same,"F1 phenodeviant rats, abnormality observed: multiple",SD male rats (germ line); single dose 120 mg/kg,0
same,"F1 phenodeviant rats, abnormality observed: skin/hair",SD male rats (germ line); single dose 120 mg/kg,0
same,"F1 phenodeviant rats, abnormality observed: tail",SD male rats (germ line); single dose 120 mg/kg,1
same,total number of phenodeviants,"SD male rats (germ line); single dose 120 mg/kg, 419 F1 rats examined",3
same,"F1 phenodeviant rats, abnormality observed: behavioral",SD male rats (germ line); split dose 2 × 50 mg/kg,0
same,"F1 phenodeviant rats, abnormality observed: craniofacial",SD male rats (germ line); split dose 2 × 50 mg/kg,0
same,"F1 phenodeviant rats, abnormality observed: ear",SD male rats (germ line); split dose 2 × 50 mg/kg,0
same,"F1 phenodeviant rats, abnormality observed: eye",SD male rats (germ line); split dose 2 × 50 mg/kg,4
same,"F1 phenodeviant rats, abnormality observed: gonad",SD male rats (germ line); split dose 2 × 50 mg/kg,0
same,"F1 phenodeviant rats, abnormality observed: growth (<50% littermates)",SD male rats (germ line); split dose 2 × 50 mg/kg,0
same,"F1 phenodeviant rats, abnormality observed: limb/digit",SD male rats (germ line); split dose 2 × 50 mg/kg,0
same,"F1 phenodeviant rats, abnormality observed: multiple",SD male rats (germ line); split dose 2 × 50 mg/kg,0
same,"F1 phenodeviant rats, abnormality observed: skin/hair",SD male rats (germ line); split dose 2 × 50 mg/kg,0
same,"F1 phenodeviant rats, abnormality observed: tail",SD male rats (germ line); split dose 2 × 50 mg/kg,3
same,total number of phenodeviants,"SD male rats (germ line); split dose 2 × 50 mg/kg, 782 F1 rats examined",7
same,"F1 phenodeviant rats, abnormality observed: behavioral",SD male rats (germ line); split dose 2 × 60 mg/kg,0
same,"F1 phenodeviant rats, abnormality observed: craniofacial",SD male rats (germ line); split dose 2 × 60 mg/kg,2
same,"F1 phenodeviant rats, abnormality observed: ear",SD male rats (germ line); split dose 2 × 60 mg/kg,0
same,"F1 phenodeviant rats, abnormality observed: eye",SD male rats (germ line); split dose 2 × 60 mg/kg,37
same,"F1 phenodeviant rats, abnormality observed: gonad",SD male rats (germ line); split dose 2 × 60 mg/kg,0
same,"F1 phenodeviant rats, abnormality observed: growth (<50% littermates)",SD male rats (germ line); split dose 2 × 60 mg/kg,10
same,"F1 phenodeviant rats, abnormality observed: limb/digit",SD male rats (germ line); split dose 2 × 60 mg/kg,5
same,"F1 phenodeviant rats, abnormality observed: multiple",SD male rats (germ line); split dose 2 × 60 mg/kg,6
same,"F1 phenodeviant rats, abnormality observed: skin/hair",SD male rats (germ line); split dose 2 × 60 mg/kg,6
same,"F1 phenodeviant rats, abnormality observed: tail",SD male rats (germ line); split dose 2 × 60 mg/kg,13
same,total number of phenodeviants,"SD male rats (germ line); split dose 2 × 60 mg/kg, 5163 F1 rats examined",79
same,"ENU-induced heritable phenotype, observed phenotype","SD rats; Line 18, F1 founder female, initial ENU dose 2 × 60 mg/kg",crooked tail & slit eyes
same,Heritable phenotype confirmed in multiple litters,"SD rats; Line 18, initial ENU dose 2 × 60 mg/kg",yes
same,"ENU-induced heritable phenotype, observed phenotype","SD rats; Line 19, F1 founder male, initial ENU dose 2 × 50 mg/kg",growth on tail
same,Heritable phenotype confirmed in multiple litters,"SD rats; Line 19, initial ENU dose 2 × 50 mg/kg",yes
same,"ENU-induced heritable phenotype, observed phenotype","SD rats; Line 28, F1 founder female, initial ENU dose 2 × 60 mg/kg",red ring eyes
same,Heritable phenotype confirmed in multiple litters,"SD rats; Line 28, initial ENU dose 2 × 60 mg/kg",yes
same,"ENU-induced heritable phenotype, observed phenotype","SD rats; Line 29, F1 founder female, initial ENU dose 2 × 60 mg/kg",oblong face
same,Heritable phenotype confirmed in multiple litters,"SD rats; Line 29, initial ENU dose 2 × 60 mg/kg",yes
same,"ENU-induced heritable phenotype, observed phenotype","SD rats; Line 32, F1 founder female, initial ENU dose 2 × 60 mg/kg",slit eyes
same,Heritable phenotype confirmed in multiple litters,"SD rats; Line 32, initial ENU dose 2 × 60 mg/kg",yes
same,"ENU-induced heritable phenotype, observed phenotype","SD rats; Line 38, F1 founder male, initial ENU dose 2 × 60 mg/kg",curved tail
same,Heritable phenotype confirmed in multiple litters,"SD rats; Line 38, initial ENU dose 2 × 60 mg/kg",yes
same,"ENU-induced heritable phenotype, observed phenotype","SD rats; Line 42, F1 founder female, initial ENU dose 2 × 60 mg/kg",bald spots
same,Heritable phenotype confirmed in multiple litters,"SD rats; Line 42, initial ENU dose 2 × 60 mg/kg",yes
same,"ENU-induced heritable phenotype, observed phenotype","SD rats; Line 60, F1 founder female, initial ENU dose 2 × 60 mg/kg",scaly skin
same,Heritable phenotype confirmed in multiple litters,"SD rats; Line 60, initial ENU dose 2 × 60 mg/kg, only one litter to date",no^a
same,"ENU-induced heritable phenotype, observed phenotype","SD rats; Line 61, F1 founder male, initial ENU dose 2 × 60 mg/kg",swollen feet
same,Heritable phenotype confirmed in multiple litters,"SD rats; Line 61, initial ENU dose 2 × 60 mg/kg, only one litter to date",no^a
same,Heritable phenotype confirmed in multiple litters,"SD rats; Line 63, initial ENU dose 2 × 60 mg/kg",yes
same,# phenodeviants heritable,"SD rats; SD, ENU dose 100 mg/kg",0
same,# phenodeviants non-heritable,"SD rats; SD, ENU dose 100 mg/kg",4
same,"# phenodeviants unknown (sterile, not evaluated, being evaluated or died)","SD rats; SD, ENU dose 100 mg/kg",4
same,# phenodeviants heritable,"SD rats; SD, ENU dose 120 mg/kg",0
same,# phenodeviants non-heritable,"SD rats; SD, ENU dose 120 mg/kg",2
same,"# phenodeviants unknown (sterile, not evaluated, being evaluated or died)","SD rats; SD, ENU dose 120 mg/kg",1
same,# phenodeviants heritable,"SD rats; SD, ENU dose 2 × 50 mg/kg",1
same,# phenodeviants non-heritable,"SD rats; SD, ENU dose 2 × 50 mg/kg",4
same,"# phenodeviants unknown (sterile, not evaluated, being evaluated or died)","SD rats; SD, ENU dose 2 × 50 mg/kg",2
same,# phenodeviants heritable,"SD rats; SD, ENU dose 2 × 60 mg/kg",9
same,# phenodeviants non-heritable,"SD rats; SD, ENU dose 2 × 60 mg/kg",9
same,"# phenodeviants unknown (sterile, not evaluated, being evaluated or died)","SD rats; SD, ENU dose 2 × 60 mg/kg",61
same,heritability of mutations in phenodeviants tested,"SD rats; SD, single dose protocols",none of the six phenodeviant rats tested showed heritable mutations
same,lifespan and tumors of fertile mutagenized male rats,male rats; about one year post-ENU,"shortened, with many developing skin and kidney tumors and lymphomas at approximately one year of age"
same,acute toxicity to male rats,"male rats; all doses of Table 1, SD, F344, WF",none of the ENU doses used were toxic to the male rats; also recorded: None of the doses listed in Table 1 were acutely toxic
